Source: patent US20100062070A1, “Pulverzed crystals of olmesartan medoxomil” (DAIICHI SANKYO COMPANY, LIMITED, priority 2007, published 2010)

Columns and labels:
[1] = Measurement of dissolution ratio of pulverized olmesartan medoxomil (JP Dissolution Test Method 2, Paddle Method); format: physicochemical; conditions: calculated from regression equation in FIG. 1, 30 minutes, JP-2, 200 paddle rpm
Procedure: According to the Method 2 of the Dissolution Test (Paddle Method) described in the 14th Revised Edition of the Japanese Pharmacopoeia, at 200 paddle revolutions per-minute using 900 mL of Japanese Pharmacopoeia Solution 2 (JP-2) for the test solution, 20 mg of milled olmesartan medoxomil prepared per 1 Bessel was added. The test solution was sampled at 30 minutes after the start of the testing, the sampled test solution was filtered through a membrane filter having a pore diameter of 0.45 μm, and the dissolution ratio of olmesartan medoximil was measured by spectrophotometer. Calculation of the dissolution ratio was conducted based on “absorbance of filtrate at 257 nm-absorbance of filtrate at 338 nm”.

[2] = Particle diameter measurement of milled product (HELOS&RODOS dry powder particle size analyzer); format: physicochemical; conditions: evaluated by using FIG. 3
Procedure: The particle diameter of the milled olmesartan medoxomil obtained in Example (1) was measured under the following conditions. Apparatus: HELOS&RODOS dry powder particle size analyzer Lens: R3 Dispersive pressure: 1.5 bar Trigger condition: 2s-1000ms-k15-0.5% Feeder: VIBRI (feeding: 70%)

CCCc1nc(C(C)(C)O)c(C(=O)OCc2oc(=O)oc2C)n1Cc1ccc(-c2ccccc2-c2nnn[nH]2)cc1 [olmesartan medoxomil, (5-methyl-2-oxo-1,3-dioxolen-4-yl)methyl 4-(1-hydroxy-1-methylethyl)-2-propyl-1-[2′-(1H-tetrazol-5-yl)biphenyl-4-ylmethyl]imidazole-5-carboxylate]
dissolution ratio of the drug substance ([1]; desired dissolution ratio of the medicament (20 mg tablet) set to 60%): 42.93% | dissolution ratio of the drug substance ([1]; desired dissolution ratio of the medicament (20 mg tablet) set to 65%): 50.56% | dissolution ratio of the drug substance ([1]; desired dissolution ratio of the medicament (20 mg tablet) set to 70%): 58.18% | particle diameter at 99% cumulative volume ([2]; required for a medicament which elutes 60% or more): ≤ 156 μm | particle diameter at 99% cumulative volume ([2]; required for a medicament which elutes 65% or more): ≤ 137 μm | particle diameter at 99% cumulative volume ([2]; required for a medicament which elutes 70% or more): ≤ 119 μm
